# Laboratory results taken from article PMC3690439 (Nuclear medicine and biology, 2012).
# Where two headings read alike, the source gives them in different places.
# What was measured:
# P-glycoprotein (Pgp) = P-glycoprotein (Pgp) (Homo sapiens, UniProt P08183); assay: Rhodamine 123 efflux inhibition assay in CCRFvcr1000 cells; format: cell-based
# [1] = target: P-glycoprotein (Pgp) at the blood-brain barrier (Mus musculus, UniProt P21447); conditions: FVB wild-type mice; cited from earlier work
# [2] = test system: P-glycoprotein (Pgp) at the blood-brain barrier; conditions: Mdr1a/b(-/-) mice; cited from earlier work
# EMT6Ar1.0 tumors = conditions: murine tumor model; cited from earlier work
# Chain of P-glycoprotein (Pgp) (P08183 whole entry): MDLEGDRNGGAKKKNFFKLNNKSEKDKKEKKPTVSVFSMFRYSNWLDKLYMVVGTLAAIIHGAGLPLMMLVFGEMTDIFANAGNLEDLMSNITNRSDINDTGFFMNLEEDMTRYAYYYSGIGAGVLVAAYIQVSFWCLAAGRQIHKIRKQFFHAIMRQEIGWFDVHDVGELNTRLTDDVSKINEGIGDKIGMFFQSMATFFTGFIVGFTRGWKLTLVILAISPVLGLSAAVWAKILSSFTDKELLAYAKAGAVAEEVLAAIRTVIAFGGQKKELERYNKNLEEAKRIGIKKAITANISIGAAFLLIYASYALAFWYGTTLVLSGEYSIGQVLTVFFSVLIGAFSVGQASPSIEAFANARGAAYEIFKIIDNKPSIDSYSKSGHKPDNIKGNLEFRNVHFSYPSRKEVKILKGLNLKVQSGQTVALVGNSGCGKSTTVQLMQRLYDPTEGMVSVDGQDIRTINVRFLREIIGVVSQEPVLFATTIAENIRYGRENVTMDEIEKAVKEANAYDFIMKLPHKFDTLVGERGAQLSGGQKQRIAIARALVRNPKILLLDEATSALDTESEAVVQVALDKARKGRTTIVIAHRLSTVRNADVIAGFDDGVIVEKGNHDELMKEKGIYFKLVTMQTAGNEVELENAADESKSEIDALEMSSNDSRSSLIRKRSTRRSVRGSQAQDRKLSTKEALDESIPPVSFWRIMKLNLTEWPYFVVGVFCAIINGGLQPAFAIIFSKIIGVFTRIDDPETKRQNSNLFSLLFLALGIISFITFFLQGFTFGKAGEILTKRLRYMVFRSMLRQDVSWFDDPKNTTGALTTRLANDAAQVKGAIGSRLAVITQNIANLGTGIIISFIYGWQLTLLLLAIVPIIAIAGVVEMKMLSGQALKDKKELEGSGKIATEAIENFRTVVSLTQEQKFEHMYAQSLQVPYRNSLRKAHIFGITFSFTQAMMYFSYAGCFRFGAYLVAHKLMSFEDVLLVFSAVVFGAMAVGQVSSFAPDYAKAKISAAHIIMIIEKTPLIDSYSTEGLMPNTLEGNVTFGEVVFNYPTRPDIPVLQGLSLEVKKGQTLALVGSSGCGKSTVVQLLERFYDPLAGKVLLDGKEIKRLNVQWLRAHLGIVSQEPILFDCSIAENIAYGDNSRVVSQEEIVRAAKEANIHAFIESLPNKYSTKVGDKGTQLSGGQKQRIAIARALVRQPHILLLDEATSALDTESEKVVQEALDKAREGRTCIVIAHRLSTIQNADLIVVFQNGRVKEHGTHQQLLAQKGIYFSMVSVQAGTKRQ
# Chain of P-glycoprotein (Pgp) at the blood-brain barrier (Mus musculus, UniProt P21447) (P21447 whole entry): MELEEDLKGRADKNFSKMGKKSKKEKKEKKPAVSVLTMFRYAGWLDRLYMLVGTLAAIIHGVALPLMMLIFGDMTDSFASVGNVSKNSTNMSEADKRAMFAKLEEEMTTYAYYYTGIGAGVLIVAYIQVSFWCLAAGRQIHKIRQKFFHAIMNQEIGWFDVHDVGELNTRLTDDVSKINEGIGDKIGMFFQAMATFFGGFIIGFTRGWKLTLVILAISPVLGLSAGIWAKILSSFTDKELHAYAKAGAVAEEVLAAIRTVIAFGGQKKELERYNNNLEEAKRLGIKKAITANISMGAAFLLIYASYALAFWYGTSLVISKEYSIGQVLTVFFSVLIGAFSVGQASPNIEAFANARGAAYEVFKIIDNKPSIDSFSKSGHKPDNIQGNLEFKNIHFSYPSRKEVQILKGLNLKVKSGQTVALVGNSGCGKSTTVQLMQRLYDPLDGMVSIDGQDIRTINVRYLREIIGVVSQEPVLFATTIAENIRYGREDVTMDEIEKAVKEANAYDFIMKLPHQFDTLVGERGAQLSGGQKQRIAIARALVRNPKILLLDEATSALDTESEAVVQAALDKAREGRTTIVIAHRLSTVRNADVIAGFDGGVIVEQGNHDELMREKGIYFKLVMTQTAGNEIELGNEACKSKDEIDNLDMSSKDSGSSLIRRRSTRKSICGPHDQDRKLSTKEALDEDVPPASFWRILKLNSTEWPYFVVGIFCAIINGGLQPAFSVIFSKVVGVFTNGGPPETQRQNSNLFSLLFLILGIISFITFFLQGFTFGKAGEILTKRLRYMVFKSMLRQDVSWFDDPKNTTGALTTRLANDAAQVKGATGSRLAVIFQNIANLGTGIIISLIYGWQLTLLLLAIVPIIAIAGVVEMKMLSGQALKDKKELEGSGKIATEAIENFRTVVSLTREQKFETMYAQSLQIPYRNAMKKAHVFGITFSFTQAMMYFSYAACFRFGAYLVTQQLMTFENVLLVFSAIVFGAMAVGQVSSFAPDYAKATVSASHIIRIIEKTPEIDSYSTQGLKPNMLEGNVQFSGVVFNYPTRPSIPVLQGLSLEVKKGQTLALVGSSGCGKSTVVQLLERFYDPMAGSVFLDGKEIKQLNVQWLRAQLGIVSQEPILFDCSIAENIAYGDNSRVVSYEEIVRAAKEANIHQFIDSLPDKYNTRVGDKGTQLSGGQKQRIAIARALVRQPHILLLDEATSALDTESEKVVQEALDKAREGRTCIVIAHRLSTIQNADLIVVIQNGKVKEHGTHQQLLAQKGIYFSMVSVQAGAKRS
compound,measurement,setting,value
COc1ccc(-c2ccc(CN3CCc4cc(OC)c(OC)cc4C3)cc2)cc1 [MC113],IC50,"P-glycoprotein (Pgp); read-out: IC50 for inhibition of Pgp-mediated rhodamine 123 efflux, CCRFvcr1000 cells, mean±SD, at least 3 independent experiments in duplicate",375 ± 60 nM
COc1cc2c(cc1OC)CN(CCc1ccc(NC(=O)c3cc(OC)c(OC)cc3NC(=O)c3cnc4ccccc4c3)cc1)CC2 [[^11C]tariquidar],mean brain AUC0-60,[1],9 ± 1 min
same,mean brain AUC0-60,[2],17 ± 2 min
same,higher AUC0-60 in EMT6Ar1.0 than in EMT6 tumors,EMT6Ar1.0 tumors,approximately 60%
COc1cc2c(cc1OC)CN(CCc1ccc(NC(=O)c3cc(OC)c(OC)cc3NC(=O)c3cnc4ccccc4c3)cc1)CC2 [tariquidar],IC50,P-glycoprotein (Pgp),8.5 ± 2.5 nM
